The data set deals with hASCs (human adipose-derived stromal cells). In words: Cytotoxicity IC50, TOX-8 resazurin assay, hASCs, 24 h. The note with it: hASCs, TOX-8 assay, 24 h. It is filed as cell-based. The procedure: Human Adipose Tissue-derived Stem Cells (hASCs) were isolated from subcutaneous adipose tissue fragments harvested from non-diabetic female donors (age range 33–38, n = 2) during standard surgical procedure of total hip arthroplasty. Immediately after collection of tissue, the samples were placed in sterile tissue-transport medium (Hank’s Balanced Salt Solution (HBSS) supplemented with 1% Penicillin/Streptomycin/Amphotericin B solution (P/S/A). Mesenchymal stromal cell isolation was performed using enzymatic digestion of extracellular matrix with collagenase type I. Before digestion, tissue specimens were washed twice with HBSS and incubated in collagenase type I solution (1 mg/mL) at 37 °C for 40 min. The digest was subsequently centrifuged (1200 × g; 10 minutes; room temperature) and the cell pellet was resuspended in Dulbecco’s modified Eagle’s medium (DMEM) with Nutrient F-12 Ham, 10% of Fetal Bovine Serum (FBS), and 1% of P/S/A, transferred to a culture flask, and kept in culture under optimal conditions (37 °C in a humidified atmosphere of 5% CO2). The medium was refreshed every 2–3 days. At 80–90% confluence, the cells were passaged using trypsin solution (TrypLE Express, Life Technologies, California, USA). At passage 3, hASCs were collected and cellular phenotype was confirmed by the high expression of markers CD44, CD29, CD73, CD105 and low expression of CD45. Moreover, the trilineage differentiation capacity of ASCs was confirmed as previously described.
The IC50 values were determined using in vitro Toxicology TOX-8 Assay Kit (resazurin based) according to the manufacturer’s protocol. For this assay, cells were seeded in a 96-well plate at a density of 5 × 10^3 cells/well. The cells were pre-incubated in drug-free complete medium for 24 h before adding various concentrations of the compounds to be investigated. Stock solutions of the compounds were prepared in DMSO following serial dilutions in DMEM with Nutrient F-12 Ham complete medium. The cells exposure period was 24 h. After that time media were replaced with 10% v/v resazurin dye solution in fresh complete culture medium. Incubation was carried out for 2 h at 37 °C in the CO2 incubator. Reduction of the dye was measured spectrophotometrically at 600 nm and 690 nm reference wavelength (Epoch, Biotek). Absorbance measurements allowed the determination of viable treated cells relative to untreated controls using the inflection point of a dose-response graph. IC50 values were estimated as duplicates of triplicate readings in two independent experiments.
(In general: Alamar Blue is a resazurin reagent that responds to reducing activity.)

“Also recorded” adds a separate entry of the source.

On to `S=P(CN1CCN(c2ccc(OC[C@H]3CO[C@](Cn4ccnc4)(c4ccc(Cl)cc4Cl)O3)cc2)CC1)(c1ccccc1)c1ccccc1` [KeSP, Ph2P(S)CH2-Ke], for which the “IC50 (cytotoxicity, hASCs viability)” value is recorded as “not cytotoxic in the tested concentration range; also recorded: not toxic”.

The values are drawn from PMC6838151 (Scientific Reports, 2019).
